Assay: mn = molality of the nth substance listed, in mol/kg
Settings: 101 kPa, Liquid; for speed of sound: Pulse-echo method

CC(C)=O [acetone] + CCCC[P+](CCCC)(CCCC)CCCC.[Br-]
m2 = 0
Settings | mass density [kg/m3]
288.15 K | 795.633
293.15 K | 789.952
298.15 K | 784.234
303.15 K | 778.47
308.15 K | 772.661
313.15 K | 766.799

CC#N [acetonitrile] + CCCC[P+](CCCC)(CCCC)CCCC.[Br-]
m2 = 0
Settings | mass density [kg/m3]
288.15 K | 787.275
293.15 K | 781.893
298.15 K | 776.493
303.15 K | 771.067
308.15 K | 765.61
313.15 K | 760.119
323.15 K | 749.031

CCCCO [butan-1-ol] + CCCC[P+](CCCC)(CCCC)CCCC.[Br-]
m2 = 0
Settings | mass density [kg/m3]
288.15 K | 813.269
293.15 K | 809.472
298.15 K | 805.659
303.15 K | 801.817
308.15 K | 797.945
313.15 K | 794.037
323.15 K | 786.081

CCO [ethanol] + CCCC[P+](CCCC)(CCCC)CCCC.[Br-]
m2 = 0
Settings | mass density [kg/m3]
288.15 K | 793.628
293.15 K | 789.354
298.15 K | 785.063
303.15 K | 780.745
308.15 K | 776.392
313.15 K | 772
323.15 K | 763.084

CCCO [propan-1-ol] + CCCC[P+](CCCC)(CCCC)CCCC.[Br-]
m2 = 0
Settings | mass density [kg/m3]
288.15 K | 807.448
293.15 K | 803.46
298.15 K | 799.452
303.15 K | 795.414
308.15 K | 791.344
313.15 K | 787.227
323.15 K | 778.86

CCCC[P+](CCCC)(CCCC)CCCC.[Br-] [tetrabutylphosphonium bromide] + CC#N
Settings | mass density, 288.15 K [kg/m3] | mass density, 293.15 K [kg/m3] | mass density, 298.15 K [kg/m3] | mass density, 303.15 K [kg/m3] | mass density, 308.15 K [kg/m3] | mass density, 313.15 K [kg/m3] | mass density, 323.15 K [kg/m3] | speed of sound, 298.15 K [m/s]
m1 = 0.007874 | 787.927 | 782.552 | 777.157 | 771.738 | 766.288 | 760.805 | 749.733 | –
m1 = 0.01066 | 788.155 | 782.783 | 777.389 | 771.974 | 766.524 | 761.045 | 749.978 | –
m1 = 0.01465 | 788.477 | 783.109 | 777.721 | 772.308 | 766.862 | 761.385 | 750.325 | –
m1 = 0.01965 | 788.885 | 783.521 | 778.136 | 772.724 | 767.283 | 761.811 | 750.761 | –
m1 = 0.02448 | 789.275 | 783.912 | 778.532 | 773.125 | 767.689 | 762.22 | 751.178 | –
m1 = 0.0297 | 789.7 | 784.34 | 778.965 | 773.559 | 768.128 | 762.662 | 751.631 | –
m1 = 0.03509 | 790.132 | 784.784 | 779.405 | 774.005 | 768.58 | 763.119 | 752.095 | –
m1 = 0.03974 | 790.506 | 785.156 | 779.78 | 774.389 | 768.965 | 763.508 | 752.488 | 1280.1
m1 = 0.04929 | 791.273 | 785.93 | 780.567 | 775.178 | 769.76 | 764.31 | 753.307 | 1280.5
m1 = 0.06938 | 792.879 | 787.551 | 782.208 | 776.834 | 771.429 | 765.995 | 755.023 | 1281.4
m1 = 0.08849 | 794.411 | 789.095 | 783.76 | 778.399 | 773.011 | 767.591 | 756.649 | 1282.2
m1 = 0.1056 | 795.783 | 790.48 | 785.156 | 779.812 | 774.43 | 769.023 | 758.107 | –
m1 = 0.1224 | 797.155 | 791.858 | 786.545 | 781.208 | 775.841 | 770.445 | 759.553 | –
m1 = 0.1338 | 798.088 | 792.8 | 787.494 | 782.156 | 776.78 | 771.4 | 760.532 | 1284.1
m1 = 0.1414 | 798.688 | 793.405 | 788.102 | 782.773 | 777.428 | 772.045 | 761.174 | –
m1 = 0.1504 | 799.412 | 794.136 | 788.839 | 783.514 | 778.17 | 772.795 | 761.945 | –
m1 = 0.1671 | 800.758 | 795.492 | 790.206 | 784.9 | 779.563 | 774.2 | 763.372 | 1285.6
m1 = 0.1811 | 801.879 | 796.621 | 791.346 | 786.047 | 780.72 | 775.365 | 764.561 | –
m1 = 0.1987 | 803.297 | 798.049 | 792.784 | 787.498 | 782.184 | 776.843 | 766.064 | 1287
m1 = 0.2296 | 805.781 | 800.553 | 795.309 | 790.042 | 784.751 | 779.433 | 768.697 | 1288.3
m1 = 0.2599 | 808.22 | 803.012 | 797.78 | 792.541 | 787.27 | 781.973 | 771.277 | 1289.5
m1 = 0.2925 | 810.865 | 805.677 | 800.473 | 795.247 | 789.997 | 784.72 | 774.075 | 1290.8
m1 = 0.3259 | 813.591 | 808.424 | 803.241 | 798.038 | 792.811 | 787.558 | 776.962 | 1292.2

CCCC[P+](CCCC)(CCCC)CCCC.[Br-] [tetrabutylphosphonium bromide] + CC(C)=O
Settings | mass density, 288.15 K [kg/m3] | mass density, 293.15 K [kg/m3] | mass density, 298.15 K [kg/m3] | mass density, 303.15 K [kg/m3] | mass density, 308.15 K [kg/m3] | mass density, 313.15 K [kg/m3] | speed of sound, 298.15 K [m/s]
m1 = 0.009972 | 796.516 | 790.843 | 785.133 | 779.385 | 773.586 | 767.735 | 1161.1
m1 = 0.01477 | 796.926 | 791.257 | 785.552 | 779.806 | 774.015 | 768.169 | –
m1 = 0.01959 | 797.328 | 791.666 | 785.967 | 780.225 | 774.439 | 768.597 | 1161.8
m1 = 0.02424 | 797.711 | 792.056 | 786.362 | 780.624 | 774.841 | 769.006 | –
m1 = 0.02891 | 798.099 | 792.447 | 786.758 | 781.026 | 775.247 | 769.416 | –
m1 = 0.03385 | 798.51 | 792.86 | 787.178 | 781.451 | 775.678 | 769.85 | 1162.7
m1 = 0.04786 | 799.673 | 794.037 | 788.362 | 782.648 | 776.885 | 771.075 | 1163.6
m1 = 0.0619 | 800.822 | 795.195 | 789.537 | 783.836 | 778.088 | 772.29 | 1164.5
m1 = 0.07794 | 802.136 | 796.525 | 790.878 | 785.191 | 779.457 | 773.675 | 1165.7
m1 = 0.09642 | 803.646 | 798.046 | 792.414 | 786.74 | 781.022 | 775.257 | 1166.8
m1 = 0.123 | 805.822 | 800.247 | 794.64 | 788.995 | 783.255 | 777.557 | 1168.4
m1 = 0.1559 | 808.487 | 802.938 | 797.356 | 791.736 | 786.072 | 780.36 | 1170.4
m1 = 0.1912 | 811.381 | 805.858 | 800.306 | 794.713 | 789.077 | 783.39 | 1172.7
m1 = 0.2209 | 813.828 | 808.333 | 802.798 | 797.229 | 791.622 | 785.97 | 1174.3
m1 = 0.2576 | 816.813 | 811.345 | 805.845 | 800.309 | 794.734 | 789.113 | 1176.6
m1 = 0.2914 | 819.596 | 814.151 | 808.679 | 803.169 | 797.619 | 792.03 | 1178.7

Source: the NIST ThermoML archive (doi:10.1021/je900888e)
